Measurements: US20240366596A1, “TREATMENT OF HFPEF IN POST-MENOPAUSAL WOMEN WITH AN SGC STIMULATOR” (Cyclerion Therapeutics, Inc., priority 2021, published 2024)
Like-named read-outs stand apart in the source and are kept apart here.

How the values were obtained:
[1] = system: women compared with men with heart failure and preserved ejection fraction; conditions: cited from earlier work
obese ZSF1 rats = assay: ZSF1 rat model of diabetic nephropathy with metabolic syndrome; format: in vivo
Description: All data are plotted as mean±SEM. #p<0.05. ##p<0.01 vs obese control.
Aged ZSF1 rats have also been reported to develop HF consistent with HFpEF. In the ZSF1 model of diabetic nephropathy and metabolic syndrome, olinciguat was renoprotective and associated with lower circulating glucose, cholesterol, and triglycerides, all of which are relevant for this the population of post-menopausal women with HFpEF that tend to show a metabolic phenotype. Also in this model, baseline plasma NT-proBNP levels were similar in all obese ZSF1 groups [obese, group treated with enalapril (ENP), ENP+OLI10 (enalapril+oli at 10 mg/kg), and ENP+OLI30 (enalapril+oli at 30 mg/kg)]. NT-proBNP, analyzed as change from baseline to the end of treatment, increased in the obese control and ENP groups, and decreased in ENP+OLI10 and ENP+OLI30 groups (FIG. 5).

[2] = system: Dahl salt-sensitive rat model; assay: Dahl salt-sensitive (DSS) hypertension rat model of HFpEF; format: in vivo; conditions: olinciguat 10 mg/kg, FIG. 4
Procedure: All data are plotted as mean±SEM. **p<0.01. ***p<0.001 vs high-salt (HS) control.
The cardioprotective effects of olinciguat were tested in two animal models of HF: the rat post-myocardial infarction (MI) model of heart failure with reduced ejection fraction and in the Dahl salt-sensitive (DSS) hypertension model, which develops HFpEF.

[3] = system: normotensive and hypertensive rats; assay: Blood pressure in normotensive and hypertensive rats; format: in vivo, rat
[4] = system: participants with chronic HF and an ejection fraction (EF) of ≥45% (i.e., HFpEF); conditions: cited from earlier work
[5] = system: participants with chronic HF, an LVEF of at least 45% (i.e., HFpEF); conditions: cited from earlier work
participants with HFpEF [6] = assay: CAPACITY HFpEF Phase 2 trial of praliciguat: safety (treatment-emergent adverse events); format: in vivo, human
Description: (§1) A Multicenter, Randomized, Double-Blind, Placebo-Controlled, Phase 2 Study Evaluating the Safety and Efficacy of Different Doses of Praliciguat (IW-1973, Compound I-1) Over 12 Weeks in Patients with Heart Failure with Preserved Ejection Fraction (CAPACITY HFpEF).
(§2) The primary safety endpoints were based on the incidence of treatment-emergent adverse events (TEAEs) and of TEAEs that were considered study drug-related by the investigator. TEAEs were defined as AEs that started or worsened in severity after administration of study drug. Medical history, prior and concomitant medications and surgeries/procedures, and adverse events (AEs) were collected throughout the study. Physical examination, vital sign measurements including orthostatic blood pressures, clinical laboratory tests, pregnancy tests, and ECGs were performed. Blood was also collected to determine pharmacokinetic (PK) parameters and plasma concentrations of praliciguat.
(§3) This Phase 2, multicenter, randomized, double-blind, placebo-controlled, parallel-group study evaluated the safety and efficacy of praliciguat compared with placebo. The study randomized 196 adults with established heart failure (HF) and limited exercise capacity with an ejection fraction (EF) of at least 40% and who had at least 2 of 4 risk factors for HFpEF (diabetes/prediabetes, hypertension, obesity, and advanced age) (see Inclusion and Exclusion Criteria below).

participants with HFpEF [7] = assay: CAPACITY HFpEF Phase 2 trial of praliciguat: cardiometabolic endpoints (blood pressure, HbA1c); format: in vivo, human; conditions: Week 12
Description: as §1, §2
Other exploratory endpoints included assessment of echocardiographic parameters (as determined by an independent, central echocardiography core laboratory that was blinded to treatment assignment); changes from baseline to Week 12 and Follow-up visits in New York Heart Association (NYHA) functional classification (I, II, III, or IV); cardiac events (hospitalizations of CV etiology and all deaths were analyzed by the central, independent, blinded cardiac events adjudicators who determined if an event was due to heart failure or was of other CV etiology); changes from baseline to Week 12 in blood and urine biomarker levels that are relevant to HF pathophysiology; and changes from baseline to Week 12 in NT-proBNP values, urine albumin creatinine ratios (UACRs), estimated glomerular filtration rates (eGFRs), and HOMA-IR changes. Changes from baseline responses in participants' self-administered health-related quality-of-life (QOL) questionnaires were also tabulated and analyzed, including the Kansas City Cardiomyopathy Questionnaire (KCCQ), the Sheehan Disability Scale (SDS), the EuroQol (EQ) 5D-5L, and the Quick Inventory of Depressive Symptomatology Self-Report 16-item version (QIDS-SR-16).
Whereas the change from baseline relative to placebo in the general population was a reduction of 3.5 mmHg in the systolic blood pressure, this change was 7.9 mmHg reduction for the subpopulation of elderly women. Similarly, whereas the change from baseline relative to placebo in the general population was a reduction of 2.1 mmHg in the diastolic blood pressure, this change was 8.2 mmHg reduction for the subpopulation of elderly women. And also similarly, the change from baseline relative to placebo in the general population was a reduction of 0.18% points in the measurement of HbA1C, this change was 0.41% reduction from baseline relative to placebo for the subpopulation of elderly women

participants with HFpEF [8] = assay: CAPACITY HFpEF Phase 2 trial of praliciguat: 6-minute walk test (6MWT); format: in vivo, human
Description: as §1
(§4) The pre-specified major secondary endpoints were the change from baseline in 6-minute walk test (6MWT) distance at Week 12, the change from baseline in ventilatory efficiency as defined by VE/VCO2 slope (minute ventilation/volume of carbon dioxide production) as obtained via CPET at Week 12, and the number of CPET responders defined as participants who improved by at least 1.5 mL O2/kg/min in peak VO2 from baseline to Week 12. In the CPET responder analysis, participants who were hospitalized or who died due to heart failure during the study Treatment Period or were missing Week 12 post-dose CPET values were considered to be non-responders.
as §3
Screening Period: The Screening Period started with the signing of the ICF at the Screening Visit and lasted up to 45 days. At the Screening Visit, potential participants underwent screening procedures to determine their initial study eligibility. At the Baseline Visit, participants returned to the clinic for additional screening procedures to confirm their eligibility, including assessment of their CPET values, vital sign measurements, and blood and urine sample collections, and to receive urine sample collection supplies to take home. The Screening Visit could be combined with the Baseline Visit if the participant was fasted for blood and urine collections. CPET and 6MWT were to occur within 14 days before Randomization. The end of the Screening Period coincided with the beginning of the Treatment Period.

participants with HFpEF [9] = assay: CAPACITY HFpEF Phase 2 trial of praliciguat: cardiopulmonary exercise testing (CPET); format: in vivo, human
Description: as §1
The primary objectives of this clinical study (ClinicalTrials.gov Identifier NCT03254485) were to assess the safety of oral praliciguat when administered for approximately 12 weeks to participants with HFpEF, and to evaluate the effect of oral praliciguat on peak exercise capacity (as measured by oxygen consumption [VO2]) when administered for approximately 12 weeks to participants with HFpEF, both in all participants and in participants without permanent or persistent atrial fibrillation.
The primary efficacy endpoint was the change from baseline in peak VO2 as measured by cardiopulmonary exercise testing (CPET) at Week 12 of the Treatment period. CPET was performed at baseline, at Week 8 and again at Week 12 using a highly standardized study-specific protocol. To participate in this study, each study site had to submit 2 studies to the CPET Core Laboratory at Massachusetts General Hospital core laboratory for review, and studies had to be determined to be of adequate quality before the site was deemed CPET qualified. For the 3 CPETs required by the study protocol, each study participant was to use the same form of exercise (treadmill or bicycle) and undergo the CPETs at the same time of day (+2 hours), ≥1 hour after study medication dosing. As part of the procedure, participants exercised to peak capacity beginning with unloaded exercise and continuing with a symptom-limited incremental ramp to peak VO2 with requisite respiratory exchange ratio (RER)≥1. For the baseline CPET, a participant's RER had to be ≥1.0 in order to indicate an adequate test (i.e., adequate effort on the part of the study participant, to try to mitigate stopping for non-cardiopulmonary reasons [e.g., effort-related or musculoskeletal]). Additional CPET-related study eligibility criteria included a peak VO2 of ≤80% of the predicted or age- and sex-adjusted normal level (FLETCHER G F, et al. Exercise standards. A statement for healthcare professionals from the American Heart Association. Writing Group. Circulation. 1995;91 [2]: 580-615), which served as an objective indicator of exercise intolerance characteristic of HF. For the Week 8 and End of Treatment CPETs, participants were to exercise to maximum effort, ideally to RER≥1.0. Analysis of CPET measurements for eligibility and for efficacy analyses were conducted by the independent central CPET Core Lab that was blinded to treatment allocation.
as §4, §3
Dosing on Days 1 to 14 (±3) was 20 mg BID (twice daily). Dosing on Day 15 (±3) onward was 40 mg QD (once daily). […]

[10] = pooled three highest vericiguat dose arms, 12 weeks, vs placebo
[11] = 40 mg praliciguat vs placebo, Primary Analytic Population, Week 12
[12] = women of age > 70, week 12, 40 mg
[13] = women of age > 70, week 12, 40 mg vs placebo
[14] = elderly women (older than 70), 12 weeks of treatment, CPET responder analysis

sacubitril-valsartan
rate ratio for sacubitril-valsartan versus valsartan, primary outcome (HF hospitalizations and cardiovascular death) ([1]; men): 1.03 | rate ratio for sacubitril-valsartan versus valsartan, primary outcome (HF hospitalizations and cardiovascular death) ([1]; women): 0.73

CCOC(=O)[C@H](CCc1ccccc1)N[C@@H](C)C(=O)N1CCC[C@H]1C(=O)O [enalapril, reference compound]
NT-proBNP, change from baseline to the end of treatment (obese ZSF1 rats; enalapril alone (ENP group), plasma, FIG. 5): increased

NC(=O)[C@](O)(CNc1nc(-c2cc(-c3ccon3)n(Cc3ccccc3F)n2)ncc1F)C(F)(F)F [olinciguat]
cardioprotection (cardiac weights) [2]: cardioprotective | lung congestion (lung weights) [2]: reduced lung congestion | NT-proBNP levels ([2]; plasma): reduced NT-proBNP levels | blood pressure [3]: reduced blood pressure | circulating cholesterol (obese ZSF1 rats; rat, in vivo): lower | circulating glucose (obese ZSF1 rats; rat, in vivo): lower | circulating triglycerides (obese ZSF1 rats; rat, in vivo): lower | renoprotection (obese ZSF1 rats; rat, in vivo): renoprotective

COC(=O)Nc1c(N)nc(-c2nn(Cc3ccccc3F)c3ncc(F)cc23)nc1N [vericiguat]
proportion of participants achieving clinically meaningful improvements in KCCQ-clinical summary score ([4]; 10 mg vericiguat compared with placebo arm): larger proportion | change in left atrial volume [4, 10]: NOT different from placebo | change in log NT-proBNP [4, 10]: NOT different from placebo | mean change in the physical limitation score of the KCCQ ([5]; 10-mg group): 6.5 points | mean change in the physical limitation score of the KCCQ ([5]; 15-mg group): 5.5 points

OC(CNc1nc(-c2cc(-c3ccon3)n(Cc3ccccc3F)n2)ncc1F)(C(F)(F)F)C(F)(F)F [praliciguat]
deaths (participants with HFpEF [6]; 40 mg praliciguat, fatal events considered not related to study drug): One death | participants with at least one TEAE of dizziness (participants with HFpEF [6]; human, in vivo, 12 weeks): 9.9% | participants with at least one TEAE of headache (participants with HFpEF [6]; human, in vivo, 12 weeks): 11% | participants with at least one TEAE of hypotension (participants with HFpEF [6]; human, in vivo, 12 weeks): 8.8% | participants with at least one serious TEAE (participants with HFpEF [6]; human, in vivo, 12 weeks): 10% | reduction in HbA1C, change from baseline relative to placebo (participants with HFpEF [7]; general population): 0.18 % points | reduction in diastolic blood pressure, change from baseline relative to placebo (participants with HFpEF [7]; general population): 2.1 mmHg | reduction in systolic blood pressure, change from baseline relative to placebo (participants with HFpEF [7]; general population): 3.5 mmHg | reduction in HbA1C, change from baseline relative to placebo (participants with HFpEF [7]; subpopulation of elderly women): 0.41% | reduction in diastolic blood pressure, change from baseline relative to placebo (participants with HFpEF [7]; subpopulation of elderly women): 8.2 mmHg | reduction in systolic blood pressure, change from baseline relative to placebo (participants with HFpEF [7]; subpopulation of elderly women): 7.9 mmHg | placebo-adjusted LSM difference in change from baseline in 6MWT distance (participants with HFpEF [8]; [11]): −16.7 m | adjusted change in 6-minute walk test (6MWT) distance (participants with HFpEF [8]; 40 mg praliciguat, Primary Analytic Population, Week 12): 41.4 m | improvement in 6MW vs placebo (participants with HFpEF [8]; subpopulation of elderly women): 23 meters | Six Minute Walk Test LS Mean (participants with HFpEF [8]; [12]): 73.6369 | Six Minute Walk Test LS Mean Diff (participants with HFpEF [8]; [13]): 22.7533 | placebo-adjusted LSM difference in change from baseline in peak VO2 (participants with HFpEF [9]; [11]): -0.30 mL/min/kg | placebo-adjusted LSM difference in change in ventilation/carbon dioxide production slope (participants with HFpEF [9]; [11]): −0.3 | adjusted change from baseline in peak VO2 at Week 12 (participants with HFpEF [9]; 40 mg praliciguat, Primary Analytic Population (n=65), Week 12): -0.26 mL/min/kg | patients with a higher than 1 mL/O2/kg/min improvement in peak VO2 (participants with HFpEF [9]; [14]): About 50% | patients with a higher than 1.5 mL/O2/kg/min improvement in peak VO2 (participants with HFpEF [9]; [14]): 35-40% | placebo-adjusted LSM difference in change from baseline in peak VO2 (participants with HFpEF [9]; post hoc, elderly women (70 years or older), 40 mg praliciguat (n=16) vs placebo (n=18), Week 8): 0.75 mL/min/kg | placebo-adjusted LSM difference in change from baseline in peak VO2 (participants with HFpEF [9]; post hoc, elderly women (70 years or older), 40 mg praliciguat (n=16) vs placebo (n=18), Week 12): 1.58 mL/min/kg | improvement in peak work load (participants with HFpEF [9]; sub-population of elderly women, week 12): about 6.5% | worsening in peak work load (participants with HFpEF [9]; whole population): 1% | Peak Workload LS Mean (participants with HFpEF [9]; [12]): 12.6395 Watts | Peak Workload LS Mean Diff (participants with HFpEF [9]; [13]): 6.5195 Watts
